The target of test [1] is Neuronal acetylcholine receptor subunit alpha-7 (Rattus norvegicus, UniProt Q05941). Briefly: Binding affinity towards Nicotinic acetylcholine receptor alpha-7 using [3H]-MLA as radioligand.
For test [2], the target named is Neuronal acetylcholine receptor; alpha4/beta2 (Rattus norvegicus, UniProt P09483+P12390). Briefly: Binding affinity towards Nicotinic acetylcholine receptor alpha4-beta2 using [3H]nicotine as radioligand. It counts as protein-complex assay.
In test [3] the target is Neuronal acetylcholine receptor alpha3/beta4 (Homo sapiens). The test is described as follows: Binding affinity towards alpha3-beta4 subtype of neuronal nicotinic acetylcholine receptor (nAChR) using [3H]epibatidine as radioligand.

Chain of Neuronal acetylcholine receptor; alpha4/beta2 (P09483 whole entry): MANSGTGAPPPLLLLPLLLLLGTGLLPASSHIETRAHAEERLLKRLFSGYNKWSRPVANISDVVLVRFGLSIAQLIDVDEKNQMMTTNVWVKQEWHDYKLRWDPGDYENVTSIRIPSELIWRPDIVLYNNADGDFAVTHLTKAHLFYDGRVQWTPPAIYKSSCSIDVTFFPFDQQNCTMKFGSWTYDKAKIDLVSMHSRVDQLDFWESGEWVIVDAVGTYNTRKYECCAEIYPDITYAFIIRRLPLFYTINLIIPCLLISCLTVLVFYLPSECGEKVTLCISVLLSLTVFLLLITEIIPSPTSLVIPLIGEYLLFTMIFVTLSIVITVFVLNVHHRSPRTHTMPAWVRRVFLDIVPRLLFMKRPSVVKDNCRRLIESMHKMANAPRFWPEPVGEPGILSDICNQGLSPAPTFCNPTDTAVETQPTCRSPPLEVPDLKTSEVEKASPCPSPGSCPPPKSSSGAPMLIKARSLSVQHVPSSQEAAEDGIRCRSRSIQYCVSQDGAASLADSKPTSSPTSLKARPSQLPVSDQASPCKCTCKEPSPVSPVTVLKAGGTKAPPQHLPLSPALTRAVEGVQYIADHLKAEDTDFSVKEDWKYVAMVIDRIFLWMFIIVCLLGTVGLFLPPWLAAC
Chain of Neuronal acetylcholine receptor; alpha4/beta2 (P12390 whole entry): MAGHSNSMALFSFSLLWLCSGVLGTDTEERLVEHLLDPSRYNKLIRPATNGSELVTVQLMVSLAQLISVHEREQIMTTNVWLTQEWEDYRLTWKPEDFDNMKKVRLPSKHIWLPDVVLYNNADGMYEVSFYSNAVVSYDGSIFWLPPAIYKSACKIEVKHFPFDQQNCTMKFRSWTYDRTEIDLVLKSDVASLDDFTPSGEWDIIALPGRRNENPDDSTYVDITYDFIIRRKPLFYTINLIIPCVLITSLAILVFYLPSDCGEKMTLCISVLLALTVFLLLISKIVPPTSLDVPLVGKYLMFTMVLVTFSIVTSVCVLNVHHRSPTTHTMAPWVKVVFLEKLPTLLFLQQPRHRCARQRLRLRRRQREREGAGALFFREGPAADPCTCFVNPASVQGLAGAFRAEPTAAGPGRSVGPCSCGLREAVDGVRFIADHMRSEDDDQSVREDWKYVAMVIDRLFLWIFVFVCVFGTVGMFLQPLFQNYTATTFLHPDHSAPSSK
Chain of Neuronal acetylcholine receptor subunit alpha-7 (Q05941 whole entry): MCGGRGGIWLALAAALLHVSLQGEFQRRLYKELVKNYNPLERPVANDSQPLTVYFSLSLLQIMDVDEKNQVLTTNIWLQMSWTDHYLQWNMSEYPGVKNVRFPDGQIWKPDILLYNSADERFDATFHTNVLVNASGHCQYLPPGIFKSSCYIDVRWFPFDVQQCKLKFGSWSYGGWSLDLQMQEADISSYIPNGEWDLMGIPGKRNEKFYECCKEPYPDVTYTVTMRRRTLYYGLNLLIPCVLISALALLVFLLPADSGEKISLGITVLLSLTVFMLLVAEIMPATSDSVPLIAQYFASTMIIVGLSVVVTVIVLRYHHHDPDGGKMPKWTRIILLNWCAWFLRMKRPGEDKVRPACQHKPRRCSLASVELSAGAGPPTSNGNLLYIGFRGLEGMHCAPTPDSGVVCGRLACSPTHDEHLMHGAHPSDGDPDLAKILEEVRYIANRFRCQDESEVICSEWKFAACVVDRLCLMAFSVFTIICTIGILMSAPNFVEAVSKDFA

In general, Ki refers to a measure of affinity in units of concentration, obtained from inhibition or displacement. Lower therefore signals tighter binding. For the compound `Clc1ccc(C2=CCC[C@@H]3CC[C@H]2N3)cn1`, affinity in test [1] was put at a Ki of 2760 nM.

In the case of `C1=C(c2ccc(-c3ccccc3)nc2)C2CCC(CC1)N2` (centres undefined), the inhibitory constant (Ki) in test [1] is 1310 nM; in test [2], 21.4 nM.

Take `C1=C(c2cccnc2-c2ccccc2)C2CCC(CC1)N2` (centres undefined): the inhibition constant (Ki) in test [3], in test [1] and in test [2] was > 50000 nM throughout.

Turning to `C1=C(c2cccnc2)C2CCC(CC1)N2` (centres undefined), the values for the inhibitory constant (Ki) in test [1] and in test [2] were 89 nM and 0.43 nM, respectively.

Regarding `C1=C(c2cnccc2-c2ccccc2)C2CCC(CC1)N2` (centres undefined), the results for the Ki in test [3], in test [1] and in test [2] were 1990 nM, 927 nM and 234 nM, respectively.

Turning to `C1=C(c2cncc(-c3ccccc3)c2)C2CCC(CC1)N2` (centres undefined), the Ki was determined as 468 nM in test [3], 16000 nM in test [1] and 4.8 nM in test [2].
